Earlier results as cited in patent US7232435B2, “Delivery of a sympatholytic cardiovascular agent to the central nervous system to counter heart failure and pathologies associated with heart failure” (Medtronic, Inc., priority 2004, dated 2007).
Structures can show the parent of a compound that is named as a salt.

Columns and labels:
[1] = bolus intravenous injection
[2] = oral or transdermal
[3] = intrathecal delivery

With `Clc1cccc(Cl)c1N=C1NCCN1` [clonidine HCl] as the compound, how does the “autonomic effects (sympathetic outflow, vagal tone, baroreceptor reflex sensitivity)” value [1] read?
The value was “decreased sympathetic outflow, increased vagal tone and sensitivity of the baroreceptor reflex”.

And the “hemodynamic effects (heart rate, preload, afterload, pulmonary artery and right atrial pressure)” value [1]?
The value was “Reductions were observed in heart rate, left ventricular filling pressure (preload), mean systemic arterial pressure (afterload), mean pulmonary artery pressure and right atrial pressure”.

What about the “time of peak effects” value [1] of the same compound?
The value was 5 to 20 min.

With `Clc1cccc(Cl)c1N=C1NCCN1` [clonidine, 2-[(2,6-dichlorophenyl)amino]-2-imidazoline] as the compound, how does the major side effects [2] read?
Its major side effects is “sedation and dry mouth”.

And the undesirable side effects [3]?
Its undesirable side effects is “Abnormally low blood pressure (hypotension) and bradycardia”.
